Assays:
BRD4 (BD1, BD2) = target: T1, BRD4 (BD1, BD2) (Homo sapiens, UniProt O60885); test: BromoKdELECT platform assay, BRD4 (BD1, BD2); assay type: binding; details: 11 points dose-response, mean from a duplicate experiment
T1 construct: BRD4 (Bromodomain 1 (BD1) and Bromodomain 2 (BD2)); purchased DiscoverX (BromoKdELECT service)
Excerpt: (§1) The purpose of this assay is to evaluate the in vitro target engagement and selectivity (https://www.discoverx.com/services/drug-discovery-development-services/epigenetic-profiling/bromoscan-epigenetic-profiling/bromokdelect). Assay measurement is based on the amount of bromodomain captured in test and control samples by using quantitative PCR technology that detects the DNA label associated to bromodomain. Compounds that bind the bromodomain active site prevents its binding to the immobilized ligand and will reduce the amount of bromodomain captured on the solid support. […] Thus, compound activity is monitored by measuring the amount of bromodomain captured in test versus control samples by using qPCR. Binding affinity for test compound-bromodomain interactions are calculated by measuring the amount of bromodomain captured on the solid support as a function of the test compound concentration.
(§2) Binding affinity (Kd) of the compounds of Examples 1 and 2 towards CREBBP, EP300 and BRD4 (Bromodomain 1 (BD1) and Bromodomain 2 (BD2)) are determined in an 11 points dose-response study (See Table 5). Data is represented as a mean from a duplicate experiment.

SW780 = test: Cell growth inhibition assay, SW780; assay type: cell-based; details: Homo sapiens, 168 h; SW780, 7 days
Method: (§3) Tumor cell lines are plated onto 96-well, black wall poly-D-lysine plates (Corning #354640), and incubated at 37° C., 5% CO2 for 18-24 hours. Compound was added at 1:3 dilutions in DMSO and cells were incubated at 37° C., 5% CO2 for 7 days. For adherent cell lines, cells were fixed and stained with propidium iodide and scanned on Acumen (channel 3 setting). For suspension cell lines, cell growth was monitored using Cell Titer-Glo reagent.

hBRD4 = target: T2, hBRD4 (Homo sapiens, UniProt O60885); test: NanoBRET assay, BRD4 full length; assay type: cell-based; details: NanoBRET in HEK293 cells, read after overnight incubation; mean ± Standard Deviation
T2 construct: NanLuc-BRD4 Full Length (Promega, 0.0002 μg); host or cells: HEK293
Method: (§4) HEK293 cells are seeded at 10×10^6 cells/16 mL in DMEM+10% FBS in a T-75 flask and left to attach for 4-6 hours. Transfection reagents are diluted in Opti-MEM media (no phenol red, no FBS) and 8% Fugene HD containing expression plasmids at a final concentration of the following: 1: Histone H3.3 HaloTag DNA (Promega, 0.02 μg)+NanoLuc-CREBBP-BD (Promega, 0.0002 μg); 2: Histone H3.3 HaloTag DNA (Promega, 0.02 μg)+NanoLuc-EP300-BD (Promega, 0.0002 μg); 3: Histone H4 HaloTag DNA (0.02 μg)+NanLuc-BRD4 Full Length (Promega, 0.0002 μg). The DNA/Fugene mixtures are left at RT for 10 minutes. Transfection mix (800 μL) is added per flask and immediately swirled to cover the cells. The plates are returned to the incubator for overnight transfection. The next day, HaloTag NanoBRET 618 ligand (20 μL/vial of 0.1 mM) is thawed at RT. […]
(§5) Compound is serially diluted and added to 96-well plates (2 10 mM, 3-fold dilutions, 100% DMSO). […] CREBBP/EP300 plates are read after 4 hours incubation and the BRD4 plates are read after overnight incubation. To develop plates for reading, allow all reagents to reach RT before use. […] The plate is shaken for 1 minute to mix and within 10 minutes, read on Envision plate reader with the following settings: Mirror: Luminescence; Emission filter: E600LP; 2nd emission filter: D460/50; Measurement height (mm): 6.5; Measurement time (s): 0.2 second.

KG-1a = test: Cell growth inhibition assay, KG-1a; assay type: cell-based; details: Homo sapiens, 168 h, 7 days
Method: as §3

GDM1 = test: Cell growth inhibition assay, GDM1; assay type: cell-based; details: Homo sapiens, GDM-1, 168 h; GDM1, 7 days
Method: as §3

THP-1 = test: Cell growth inhibition assay, THP-1; assay type: cell-based; details: Homo sapiens, 168 h; THP-1, 7 days
Method: as §3

EP300 [1] = target: T3, EP300 (Homo sapiens, UniProt Q09472); test: NanoBRET assay, EP300 bromodomain; assay type: cell-based; set-up: NanoLuc-EP300-BD (Promega, 0.0002 μg); host or cells: HEK293; details: NanoBRET in HEK293 cells, read after 4 hours incubation; mean ± Standard Deviation
T3 sequence (Q09472 1049-1156 limits assumed): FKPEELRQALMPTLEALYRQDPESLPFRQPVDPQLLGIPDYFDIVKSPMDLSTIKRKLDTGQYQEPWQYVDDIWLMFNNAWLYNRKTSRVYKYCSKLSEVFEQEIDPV
Method: as §4, §5

EP300 [2] = target: T3, EP300; test: BromoKdELECT platform assay, EP300; assay type: binding; set-up: purchased DiscoverX (BromoKdELECT service); details: 11 points dose-response, mean from a duplicate experiment
Excerpt: as §1, §2

OCI-AML2 = test: Cell growth inhibition assay, OCI-AML2; assay type: cell-based; details: Homo sapiens, 168 h; OCI-AML2, 7 days
Method: as §3

MDA-MIB-453 = test: Cell growth inhibition assay, MDA-MIB-453; assay type: cell-based; details: 168 h; MDA-MIB-453, 7 days
Method: as §3

## CCNC(=O)c1ccc(-c2cc3cccc(-c4nn(C)c5c4CN(C)C(=O)CC5)c3cn2)cn1 [Example 2, 5-[8-(1,5-Dimethyl-6-oxo-7,8-dihydro-4H-pyrazolo[4,3-c]azepin-3-yl)-3-isoquinolyl]-N-ethyl-pyridine-2-carboxamide]
BRD4 (BD1, BD2)
  Kd: 7400 nM
SW780
  IC50: 4 nM
hBRD4
  IC50: 11800 nM
KG-1a
  IC50: 2 nM
GDM1
  IC50: 280 nM
THP-1
  IC50: 29 nM
EP300 [1]
  IC50: 26.1 ± 16.5 nM
EP300 [2]
  Kd: 0.095 nM
OCI-AML2
  IC50: 207 nM
MDA-MIB-453
  IC50: 35 nM

Source: patent US20220251096A1, “7,8-DIHYDRO-4H-PYRAZOLO[4,3-c]AZEPINE-6-ONE COMPOUNDS” (Eli Lilly and Company, priority 2019, published 2022)
